Assay results: patent US20140045824A1, “METHOD FOR PRODUCING COMPLEX CRYSTAL AND METHOD FOR SCREENING COMPLEX CRYSTAL” (priority 2011, published 2014)

Columns and labels:
Type in all cases: physicochemical
[1] = Cocrystal screening by heat melting 1-menthol (Example 1), powder X-ray diffraction and thermal analysis; design: key to Cocrystal formation, Example 1: A cocrystal was completely formed.; B: A mixture of a cocrystal and the host compound or guest compound was formed.; C: A cocrystal was not formed (a mixture of the host compound and the guest compound was formed); conditions: host theophylline; for Cocrystal formation, Example 1: equimolar guest, 1-menthol added, 4 hours at 80° C.
Method: Theophylline and a guest compound shown in Table 1 in an equimolar amount to theophylline were weighed and mixed using an agate mortar. […] Thereafter, the obtained mixed powder of theophylline, the guest compound, and 1-menthol was heated for 4 hours in an oven at 80° C., and the obtained solid was subjected to powder X-ray diffraction measurement and thermal analysis.

[2] = Cocrystal screening by co-grinding method (Comparative Example 2); design: key: A cocrystal was completely formed.; B: A mixture of a cocrystal and the host compound or guest compound was formed.; C: A cocrystal was not formed (a mixture of the host compound and the guest compound was formed); conditions: host theophylline, equimolar guest, mixed/ground in agate mortar
Method: (§1) 3 mg (0.0167 mmoles) of theophylline and a guest compound shown in Table 1 in an equimolar amount (0.0167 mmoles) to theophylline were weighed and mixed using an agate mortar. At that time, particles having a large size to an extent that they could be distinguished through visual inspection were grinded on the agate mortar. The obtained solids were subjected to powder X-ray diffraction measurement and thermal analysis.

[3] = Cocrystal screening by heating method without menthol (Comparative Example 3); design: key: A cocrystal was completely formed.; B: A mixture of a cocrystal and the host compound or guest compound was formed.; C: A cocrystal was not formed (a mixture of the host compound and the guest compound was formed); conditions: host theophylline, equimolar guest, no menthol, 4 hours at 80° C.
Method: 3 mg (0.0167 mmoles) of theophylline and a guest compound shown in Table 1 in an equimolar amount (0.0167 mmoles) to theophylline were weighed and mixed using an agate mortar. At that time, particles having a large size to an extent that they could be distinguished through visual inspection were grinded on the agate mortar. 10 mg of this mixed powder was weighed and put into a test tube, followed by heating for 4 hours in an oven at 80° C. The obtained solid was subjected to powder X-ray diffraction measurement and thermal analysis.

[4] = Cocrystal screening by slurry method (Comparative Examples 4-1 to 4-6), powder X-ray diffraction; design: key: A cocrystal was completely formed.; B: A mixture of a cocrystal and the host compound or guest compound was formed.; C: A cocrystal was not formed (a mixture of the host compound and the guest compound was formed); conditions: host carbamazepine; for Cocrystal formation, Comparative Example 4-6: slurry in acetone; for Cocrystal formation, Comparative Example 4-6 / Cocrystal formation, Comparative Example 4-2 / Cocrystal formation, Comparative Example 4-5 / Cocrystal formation, Comparative Example 4-3 / Cocrystal formation, Comparative Example 4-4 / Cocrystal formation, Comparative Example 4-1: room temperature 7 days; for Cocrystal formation, Comparative Example 4-2: slurry in ethanol; for Cocrystal formation, Comparative Example 4-5: slurry in ethyl acetate; for Cocrystal formation, Comparative Example 4-3: slurry in tetrahydrofuran; for Cocrystal formation, Comparative Example 4-4: slurry in toluene; for Cocrystal formation, Comparative Example 4-1: slurry in water; for Cocrystal formation, Comparative Example 4*: slurry summary: A if a cocrystal was formed in any one of Comparative Examples 4-1 to 4-6
Method: 3 mg (0.0127 mmoles) of carbamazepine and a guest compound shown in Table 4 in an equimolar amount (0.0127 mmoles) to carbamazepine were weighed and put into a glass container, to which was then added 60 μL of water. These were shaken at room temperature for 7 days, and the obtained residues were subjected to powder X-ray diffraction measurement. 3 mg (0.0127 mmoles) of carbamazepine and a guest compound shown in Table 4 in an equimolar amount (0.0127 mmoles) to carbamazepine were weighed and put into a glass container, to which was then added 60 μL of ethanol. These were shaken at room temperature for 7 days, and the obtained residues were subjected to powder X-ray diffraction measurement. 3 mg (0.0127 mmoles) of carbamazepine and a guest compound shown in Table 4 in an equimolar amount (0.0127 mmoles) to carbamazepine were weighed and put into a glass container, to which was then added 60 μL of tetrahydrofuran. These were shaken at room temperature for 7 days, and the obtained residues were subjected to powder X-ray diffraction measurement. 3 mg (0.0127 mmoles) of carbamazepine and a guest compound shown in Table 4 in an equimolar amount (0.0127 mmoles) to carbamazepine were weighed and put into a glass container, to which was then added 60 μL of toluene. These were shaken at room temperature for 7 days, and the obtained residues were subjected to powder X-ray diffraction measurement. 3 mg (0.0127 mmoles) of carbamazepine and a guest compound shown in Table 4 in an equimolar amount (0.0127 mmoles) to carbamazepine were weighed and put into a glass container, to which was then added 60 μL of ethyl acetate. These were shaken at room temperature for 7 days, and the obtained residues were subjected to powder X-ray diffraction measurement. 3 mg (0.0127 mmoles) of carbamazepine and a guest compound shown in Table 4 in an equimolar amount (0.0127 mmoles) to carbamazepine were weighed and put into a glass container, to which was then added 60 μL of acetone. These were shaken at room temperature for 7 days, and the obtained residues were subjected to powder X-ray diffraction measurement.

[5] = Cocrystal screening by mixing and grinding method (Comparative Example 5); design: key: A cocrystal was completely formed.; B: A mixture of a cocrystal and the host compound or guest compound was formed.; C: A cocrystal was not formed (a mixture of the host compound and the guest compound was formed); conditions: host carbamazepine, equimolar guest, mixed/ground in agate mortar
Text: as §1, with “Carbamazepine” for “3 mg (0.0167 mmoles) of theophylline”, “4” for “1”, “amount” for “amount (0.0167 mmoles)”, “carbamazepine” for “theophylline”

[6] = Cocrystal screening by heating method without menthol (Comparative Example 6); design: key: A cocrystal was completely formed.; B: A mixture of a cocrystal and the host compound or guest compound was formed.; C: A cocrystal was not formed (a mixture of the host compound and the guest compound was formed); conditions: host carbamazepine, equimolar guest, no menthol, 4 hours at 80° C.
Method: Carbamazepine and a guest compound shown in Table 4 in an equimolar amount to carbamazepine were weighed and mixed using an agate mortar. At that time, particles having a large size to an extent that they could be distinguished through visual inspection were grinded on the agate mortar. 10 mg of this mixed powder was weighed and put into a test tube and heated for 4 hours in an oven at 80° C., and the obtained solids were subjected to powder X-ray diffraction measurement and thermal analysis.

| Structure (SMILES) | Cocrystal formation, Example 1 [1] | Cocrystal formation, Comparative Example 2 [2] | Cocrystal formation, Comparative Example 3 [3] | Cocrystal formation, Comparative Example 4-6 [4] | Cocrystal formation, Comparative Example 4-2 [4] | Cocrystal formation, Comparative Example 4-5 [4] | Cocrystal formation, Comparative Example 4-3 [4] | Cocrystal formation, Comparative Example 4-4 [4] | Cocrystal formation, Comparative Example 4-1 [4] | Cocrystal formation, Comparative Example 4* [4] | Cocrystal formation, Comparative Example 5 [5] | Cocrystal formation, Comparative Example 6 [6] | Cocrystal with theophylline found, Example 1 ([1]; 1-menthol, 80° C.) |
| --- | --- | --- | --- | --- | --- | --- | --- | --- | --- | --- | --- | --- | --- |
| CC(C)C[C@H](N)C(=O)O [L-Leucine] | C | C | C | C | C | C | – | C | C | C | C | C | – |
| O=C1NS(=O)(=O)c2ccccc21 [Saccharin] | A | C | C | B | A | A | – | A | C | A | C | C | – |
| N=C(N)NCCC[C@H](N)C(=O)O [L(+)-Arginine] | C | C | C | C | C | C | – | C | C | C | C | C | could not be found out |
| O=C(O)c1ccccc1 [Benzoic acid] | A | C | B | C | C | C | – | C | C | C | C | B | – |
| O=C(O)CCCC(=O)O [Glutaric acid] | A | C | B | C | C | C | – | C | C | C | C | B | – |

Now from value to compound, other results behind:

| Cocrystal formation, Example 1 [1] | Cocrystal formation, Comparative Example 2 [2] | Cocrystal formation, Comparative Example 3 [3] | Cocrystal formation, Comparative Example 4-6 [4] | Cocrystal formation, Comparative Example 4-2 [4] | Cocrystal formation, Comparative Example 4-5 [4] | Cocrystal formation, Comparative Example 4-3 [4] | Cocrystal formation, Comparative Example 4-4 [4] | Cocrystal formation, Comparative Example 4-1 [4] | Cocrystal formation, Comparative Example 4* [4] | Cocrystal formation, Comparative Example 5 [5] | Cocrystal formation, Comparative Example 6 [6] | Structure (SMILES) | Cocrystal with theophylline found, Example 1 ([1]; 1-menthol, 80° C.) |
| --- | --- | --- | --- | --- | --- | --- | --- | --- | --- | --- | --- | --- | --- |
| A | C | C | B | A | A | A | A | C | A | C | B | NC(=O)c1cccnc1 [Nicotinamide] | – |
| A | C | B | C | C | – | – | C | C | C | C | B | O=C(O)CC(O)(CC(=O)O)C(=O)O [Citric acid] | – |
| A | C | C | C | A | A | A | A | B | A | C | B | NC(=O)c1ccccc1 [Benzamide] | – |
| B | B | C | C | C | A | – | B | C | A | C | B | O=C(O)C(=O)O [Oxalic acid] | – |
| A | A | A | A | A | A | A | A | C | A | C | B | O=S(=O)(O)CCS(=O)(=O)O [Ethanedisulfonic acid] | – |
| B | C | B | C | C | C | – | C | C | C | C | B | C/C=C/C=C/C(=O)O [Sorbic acid] | – |
| C | C | C | C | C | C | – | C | C | C | C | C | NCC(=O)O [Glycine] | – |
